pIC50: −log10 of the molar value.
Target: T1, substance P receptor (Homo sapiens, UniProt P25103)
T1 construct: endogenous in cells; host or cells: IM-9 human lymphoblast cells (membrane preparation)
Experiment: Radioligand receptor binding inhibitory activity using receptor from human lymphoblast cells (IM-9)
Conditions: [125I]-BHSP binding, receptor from IM-9 cells, 25 C, 30 min
Description: Radioligand receptor binding inhibitory activity (Binding inhibitory activity using receptor from human lymphoblast cells (IM-9))
The method of M. A. Cascieri et al., “Molecular Pharmacology 42, p. 458 (1992)” was modified and used. The receptor was. prepared from human lymphoblast cells (IM-9). IM-9 cells (2×10^5 cells/mL) were incubated for 3 days (one liter), which was then subjected to centrifuge for 5 min. at 500×G to obtain cell pellets. The obtained pellets were washed once with phosphate buffer (Flow Laboratories, CAT. No. 28-103-05), which were then homogenized using Polytron homogenizer (“Kinematika”, Germany) in 30 mL of 50 mM Tris-HCl buffer (pH 7.4) containing 120 mM sodium chloride, 5 mM potassium chloride, 2 μg/mL chymostatin, 40 μg/mL bacitracin, 5 μg/mL phosphoramidon, 0.5 mM phenylmethylsulfonyl fluoride, 1 mM ethylenediamine tetra-acetate, which was subjected to centrifuge at 40,000×G for 20 min. The residue was washed twice with 30 mL of the buffer, which was then preserved frozen (−80° C.) as a specimen of the receptor.
The specimen was suspended in a reaction buffer (50 mM Tris-HCl buffer (pH 7.4), 0.02% bovine serum albumin, 1 mM phenylmethylsulfonyl fluoride, 2 μg/mL chymostatin, 40 μg/mL bacitracin and 3 mM manganese chloride) to have protein in the concentration of 0.5 mg/mL of protein and 100 μL portion of the suspension was used in the reaction. After addition of the sample and ^125]-BHSP (0.46 KBq), the reaction was allowed to proceed in 0.2 mL of reaction buffer at […] for 30 min. The amount of nonspecific binding was determined by adding substance P at a final concentration of 2×10^−6 M.
After the reaction, using a cell harvester (290 PHD, Cambridge Technology, Inc, U.S.A.), filtration was carried out through a glass filter (GF/B, Whatman, U.S.A.), which was immersed in 0.1% polyethyleneimine for 24 hrs. and dried. After washing three times with 250 μL of 50 mM Tris-HCl buffer (pH 7.4) containing 0.02% bovine serum albumin, the radioactivity remaining on the filter was. determined with a gamma counter.
The antagonistic activity of each compound obtained in Examples was determined in terms of the concentration necessary to cause 50% inhibition (IC50 value) under the above-described conditions, and the results were shown in Table 14.
The radio ligand means substance P labeled with [^125I].

T1 sequence (P25103 whole entry): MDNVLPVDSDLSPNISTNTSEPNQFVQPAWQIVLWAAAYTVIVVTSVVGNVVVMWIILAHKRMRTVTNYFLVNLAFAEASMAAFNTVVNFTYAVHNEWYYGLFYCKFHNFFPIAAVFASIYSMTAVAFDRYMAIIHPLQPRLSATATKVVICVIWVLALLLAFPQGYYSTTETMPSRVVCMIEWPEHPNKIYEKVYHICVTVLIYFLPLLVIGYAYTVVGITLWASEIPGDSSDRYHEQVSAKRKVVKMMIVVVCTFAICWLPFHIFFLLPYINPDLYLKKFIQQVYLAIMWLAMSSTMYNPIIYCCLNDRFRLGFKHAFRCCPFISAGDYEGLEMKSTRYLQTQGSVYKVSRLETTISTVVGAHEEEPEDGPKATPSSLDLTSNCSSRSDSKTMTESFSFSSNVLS

Row | Compound | pIC50
1 | CNC(=O)N[C@H]1CC[C@H](C(=O)N2CC[C@H](O[C@H](C)c3cc(C(F)(F)F)cc(C(F)(F)F)c3)[C@H](c3ccccc3)C2)CC1 [Example 47, N-[trans-4-[[(3R,4S)-4-[(1R)-1-[3,5-Bis(trifluoromethyl)phenyl]ethoxy]-3-phenylpiperidin-1-yl]carbonyl]cyclohexyl]-N′-methylurea] | 10.44
2 | CC(=O)N1CCC(NC(=O)N2CC[C@H](O[C@H](C)c3cc(C(F)(F)F)cc(C(F)(F)F)c3)[C@H](c3ccccc3)C2)CC1 [Example 71, (3R,4S)-N-(1-acetylpiperidin-4-yl)-4-[(1R)-1-[3,5-bis(trifluoromethyl)phenyl]ethoxy]-3-phenylpiperidine-1-carboxamide] | 10.03
3 | CC(=O)N1CCC(C(=O)N2CC[C@H](O[C@H](C)c3cc(C(F)(F)F)cc(C(F)(F)F)c3)[C@H](c3ccccc3)C2)CC1 [Example 36, (3R,4S)-1-[(1-Acetylpiperidin-4-yl)carbonyl]-4-[(1R)-1-[3,5-bis(trifluoromethyl)phenyl]ethoxy]-3-phenylpiperidine] | 10.59
4 | C[C@@H](O[C@H]1CCN(C(=O)C2CCN(C(=O)N3CCNC3=O)CC2)C[C@H]1c1ccccc1)c1cc(C(F)(F)F)cc(C(F)(F)F)c1 [Example 40, 1-[[4-[[(3R,4S)-4-[(1R)-1-[3,5-Bis(trifluoromethyl)phenyl]ethoxy]-3-phenylpiperidin-1-yl]carbonyl]piperidin-1-yl]carbonyl]imidazolidin-2-one] | 10.42
5 | CCC(=O)NC1CCN(C(=O)N2CC[C@H](O[C@H](C)c3cc(C(F)(F)F)cc(C(F)(F)F)c3)[C@H](c3ccccc3)C2)CC1 [Example 74, N-[1-[[(3R,4S)-4-[(1R)-1-[3,5-bis(trifluoromethyl)phenyl]ethoxy]-3-phenylpiperidin-1-yl]carbonyl]piperidin-4-yl]propanamide] | 10.06
6 | C[C@@H](O[C@H]1CCN(C(=O)[C@H]2CC[C@H](NC(=O)c3cccs3)CC2)C[C@H]1c1ccccc1)c1cc(C(F)(F)F)cc(C(F)(F)F)c1 [Example 51, N-[trans-4-[[(3R,4S)-4-[(1R)-1-[3,5-Bis(trifluoromethyl)phenyl]ethoxy]-3-phenylpiperidin-1-yl]carbonyl]cyclohexyl]thiophene-2-carboxamide] | 10.11
7 | CNC(=O)[C@H]1CC[C@H](C(=O)N2CC[C@H](O[C@H](C)c3cc(C(F)(F)F)cc(C(F)(F)F)c3)[C@H](c3ccccc3)C2)CC1 [Example 68, trans-4-[[(3R,4S)-4-[(1R)-1-[3,5-Bis(trifluoromethyl)phenyl]ethoxy]-3-phenylpiperidin-1-yl]carbonyl]-N-methylcyclohexanecarboxamide] | 10.03
8 | C[C@@H](O[C@H]1CCN(C(=O)[C@H]2CC[C@H](NC(=O)CN3CCCCC3=O)CC2)C[C@H]1c1ccccc1)c1cc(C(F)(F)F)cc(C(F)(F)F)c1 [Example 57, N-[trans-4-[[(3R,4S)-4-[(1R)-1-[3,5-Bis(trifluoromethyl)phenyl]ethoxy]-3-phenylpiperidin-1-yl]carbonyl]cyclohexyl]-2-(2-oxopiperidin-1-yl)acetamide] | 10.24
9 | C[C@@H](O[C@H]1CCN(C(=O)C2CC(=O)N(C)C(=O)C2)C[C@H]1c1ccccc1)c1cc(C(F)(F)F)cc(C(F)(F)F)c1 [Example 77, 4-[[(3R,4S)-4-[(1R)-1-[3,5-Bis(trifluoromethyl)phenyl]ethoxy]-3-phenylpiperidin-1-yl]carbonyl]-1-methylpiperidine-2,6-dione] | 10.21
10 | CCC(=O)N1CCC(NC(=O)N2CC[C@H](O[C@H](C)c3cc(C(F)(F)F)cc(C(F)(F)F)c3)[C@H](c3ccccc3)C2)CC1 [Example 72, (3R,4S)-4-[(1R)-1-[3,5-Bis(trifluoromethyl)phenyl]ethoxy]-3-phenyl-N-(1-propionylpiperidin-4-yl)piperidine-1-carboxamide] | 10.04
